{"source": "paper PMC12603982", "about": "(Angewandte Chemie (International Ed. in English), 2025)", "key": {"[1]": {"molecular_target": "T1, mV2R (Mus musculus, UniProt O88721)", "T1 construct": "expressed in transfected cells; host or cells: wild-type HEK293, transient transfection (jetPRIME); membrane preparation", "T1 sequence (O88721 whole entry)": "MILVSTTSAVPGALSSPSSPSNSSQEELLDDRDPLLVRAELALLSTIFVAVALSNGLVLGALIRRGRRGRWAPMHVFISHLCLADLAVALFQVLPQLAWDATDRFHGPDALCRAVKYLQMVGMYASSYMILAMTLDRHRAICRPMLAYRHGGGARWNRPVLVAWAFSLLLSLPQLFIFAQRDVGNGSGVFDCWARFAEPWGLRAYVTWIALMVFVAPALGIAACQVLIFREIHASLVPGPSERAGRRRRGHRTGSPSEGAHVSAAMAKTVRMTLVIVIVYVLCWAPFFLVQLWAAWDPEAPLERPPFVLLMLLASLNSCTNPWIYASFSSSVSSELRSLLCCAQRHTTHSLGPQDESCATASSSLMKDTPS", "assay": "Radioligand displacement, membranes of HEK293 cells transiently expressing mV2R", "type": "binding", "conditions": "murine receptor, transient expression; mean ± SD", "method": "(§1) Membrane preparation for radioligand assays. HEK293 cells were used for stable expression of GFP-tagged\n(§2) human OTR, V1aR, V1bR, and V2R isoforms and transient expression of murine OTR, V1aR, V1bR, and V2R\n(§3) isoforms. Cell culture work was performed under sterile conditions with DMEM high glucose containing 10%\n(§4) FBS, and 50 U/mL P/S. Cells were cultured in 10 cm diameter cell culture dishes at 37°C in a humidified\n(§5) atmosphere with 5% CO2, and cells were passaged at 70-90% confluency.\n(§6) medium of stable cell lines at 0.5 mg/mL to sustain selection pressure, and cells were harvested at 90% confluency\n(§7) for membrane preparation. For transient expression of murine receptors, 60% confluent wild-type HEK293 cells\n(§8) were transfected using the jetPRIME transfection reagent according to the manufacturer’s protocol and harvested\n(§9) 48 h post-transfection. For membrane preparation, cells were washed with ice-cold PBS pH 7.4, scraped into fresh\n(§10) PBS on ice, and centrifuged at 4°C and 178 g for 10 min. The pellet was resuspended in a TRIS buffer solution\n(§11) The obtained solution was centrifuged for 20 min at 54,192 g and 4°C. The obtained […]\n(§12) assessed Kd values of radiotracers and by fitting the data to a three -parameter logistic Hill equation and applying […]\n(§13) concentration was determined using a Tri -Carb liquid scintillation analyzer. […]"}, "[2]": {"molecular_target": "T2, hOTR-GFP in HEK293 cells (Homo sapiens, UniProt P30559)", "T2 sequence (P30559 1-389)": "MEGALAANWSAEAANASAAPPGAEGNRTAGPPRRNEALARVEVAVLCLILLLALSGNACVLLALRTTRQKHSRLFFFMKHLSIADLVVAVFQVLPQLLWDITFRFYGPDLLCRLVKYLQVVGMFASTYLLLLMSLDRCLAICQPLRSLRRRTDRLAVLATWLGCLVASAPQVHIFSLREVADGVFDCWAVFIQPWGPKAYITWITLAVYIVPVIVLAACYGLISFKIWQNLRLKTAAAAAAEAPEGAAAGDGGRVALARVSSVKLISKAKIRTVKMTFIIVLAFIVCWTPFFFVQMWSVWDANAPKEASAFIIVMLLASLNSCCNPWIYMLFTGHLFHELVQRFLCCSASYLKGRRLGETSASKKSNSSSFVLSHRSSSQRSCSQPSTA", "assay": "hOTR-GFP internalization and tracer uptake, confocal microscopy after fixation/ICC", "type": "cell-based", "set-up": "expressed in transfected cells", "from_the_text": "To validate the application scope of our tracers for biological systems and post‐hoc imaging, we used HEK293 cells stably overexpressing human OTR or V1aR, tagged with a C‐terminal fused green fluorescent protein to visualize receptor trafficking (hOTR‐GFP or hV1aR‐GFP, respectively).\nsubsequently washed with PBS and processed for immunocytochemistry.\nImmunocytochemistry and imaging. Unspecific protein binding was quenched with 5% normal donkey serum\n(Jackson ImmunoResearch), 2% bovine serum albumin (Sigma-Aldrich, Merck), and 0.2% Triton X-100 (Sigma-\nAldrich, Merck) in PBS. Next, cells were exposed to primary antibody cocktails containing FITC-conjugated goat-\nanti-GF (1:2000, Sigma-Aldrich, Merck) and mouse pCREB (1:300, Sigma-Aldrich, Merck) in PBS with 2%\nnormal donkey serum, 0.1% BSA, and 0.2% Triton X-100 overnight at 4°C. After three PBS washing steps, wells\nwere incubated with secondary antibody cocktails (1:400, Jackson Immuno Research) containing suitable\nwere mounted with glycerol gelatin (Sigma-Aldrich, Merck) and imaged on a Zeiss LSM 780/880 confocal\nmicroscope (Zeiss). Images were analyzed and equally contrasted for visualization with ZEN Pro (Zeiss) and"}, "[3]": {"system": "rat embryonic hippocampal neurons", "assay": "Tracer uptake in primary rat hippocampal neurons", "type": "cell-based", "conditions": "10 µM, 30 min", "method": "(§14) Finally, we evaluated whether tracer (11) is applicable in primary cells endogenously expressing OTR.\n(§15) Primary UtSMC and hippocampal neuronal cultures.\n(§16) Muscle Cell Basal Medium 2 (PromoCell), including supplements (PromoCell) and P/S (Gibco) at 37°C and 5%\n(§17) CO2. Cells were trypsinized with 0.1% Trypsin/EDTA (Gibco) and plated on glass -bottom 96-well plates (CellVis)\n(§18) at a density of 10,000 cells/well in full growth medium. The next day, cells were stimulated with tracer ( 11), OTA ,\n(§19) dissociated with flame -polishe d Pasteur pipettes in Hank’s balanced salt solution (HBSS, Gibco). Tissue pieces\n(§20) were subsequently enzymatically dissociated with 0.1% Trypsin/EDTA (Gibco) in Neurobasal A (NBA, Gibco)\n(§21) containing 1,000U/mL DNase (Sigma) for 5 min at 37°C. Cells were triturated with flamed Pasteur pipettes,\n(§22) filtered through a 40 µm nylon mesh ( Thermo Fisher Scientific ), centrifuged at 200 g for 5 min, and washed up to\n(§23) three times in NBA containing P/S (Gibco), GlutaMax (Gibco) , and B27 supplement (Gibco). Cells were plated at\n(§24) 20,000 cells/well on PDL -coated (Sigma) glass -bottom black 96 -well microscopy plates (Cellvis) and grown at\n(§25) 37°C with 5% CO 2. Half of the medium was replaced every 3 -4 days. After 13 -14 days in vitro , neuronal cultures\n(§26) were exposed to 100 nM tracer ( 11) for one hour, with or without 30-min pretreatment with 10 µM of the peptide\nantagonist OTA. […]"}, "[4]": {"molecular_target": "T3, mV1bR (Mus musculus, UniProt Q9WU02)", "T3 construct": "expressed in transfected cells; host or cells: wild-type HEK293, transient transfection (jetPRIME); membrane preparation", "T3 sequence (Q9WU02 1-421)": "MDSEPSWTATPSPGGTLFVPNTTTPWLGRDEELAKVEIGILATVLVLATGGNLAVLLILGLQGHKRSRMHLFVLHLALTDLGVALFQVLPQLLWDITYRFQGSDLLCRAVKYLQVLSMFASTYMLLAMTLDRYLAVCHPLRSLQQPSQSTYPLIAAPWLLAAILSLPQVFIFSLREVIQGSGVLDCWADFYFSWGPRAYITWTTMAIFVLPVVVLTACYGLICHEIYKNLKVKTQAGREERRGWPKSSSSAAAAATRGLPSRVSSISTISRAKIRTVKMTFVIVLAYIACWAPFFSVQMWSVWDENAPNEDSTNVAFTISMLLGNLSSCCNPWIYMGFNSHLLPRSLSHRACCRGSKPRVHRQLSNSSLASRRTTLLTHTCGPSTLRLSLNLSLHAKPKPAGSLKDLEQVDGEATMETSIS", "assay": "Radioligand displacement, membranes of HEK293 cells transiently expressing mV1bR", "type": "binding", "conditions": "murine receptor, transient expression; mean ± SD", "method": "as §1, §2, §3, §4, §5, §6, §7, §8, §9, §10, §11, §12, §13"}, "[5]": {"molecular_target": "T4, mV1aR (Mus musculus, UniProt Q62463)", "T4 construct": "expressed in transfected cells; host or cells: wild-type HEK293, transient transfection (jetPRIME); membrane preparation", "T4 sequence (Q62463 whole entry)": "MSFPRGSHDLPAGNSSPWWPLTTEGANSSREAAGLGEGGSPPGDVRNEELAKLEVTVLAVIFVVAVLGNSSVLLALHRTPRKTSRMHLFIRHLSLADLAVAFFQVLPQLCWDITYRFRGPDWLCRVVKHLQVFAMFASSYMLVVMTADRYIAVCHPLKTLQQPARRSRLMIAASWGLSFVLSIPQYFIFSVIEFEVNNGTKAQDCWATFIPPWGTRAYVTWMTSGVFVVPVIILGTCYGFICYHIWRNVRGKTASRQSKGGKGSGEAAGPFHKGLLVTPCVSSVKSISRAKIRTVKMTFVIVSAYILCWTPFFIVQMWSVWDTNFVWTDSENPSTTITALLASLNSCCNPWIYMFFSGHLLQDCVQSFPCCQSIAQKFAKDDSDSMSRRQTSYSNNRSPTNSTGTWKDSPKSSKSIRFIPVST", "assay": "Radioligand displacement, membranes of HEK293 cells transiently expressing mV1aR", "type": "binding", "conditions": "murine receptor, transient expression; mean ± SD", "method": "as §1, §2, §3, §4, §5, §6, §7, §8, §9, §10, §11, §12, §13"}, "[6]": {"molecular_target": "T5, hV1aR (Homo sapiens, UniProt P37288)", "T5 construct": "expressed in transfected cells", "T5 sequence (P37288 whole entry)": "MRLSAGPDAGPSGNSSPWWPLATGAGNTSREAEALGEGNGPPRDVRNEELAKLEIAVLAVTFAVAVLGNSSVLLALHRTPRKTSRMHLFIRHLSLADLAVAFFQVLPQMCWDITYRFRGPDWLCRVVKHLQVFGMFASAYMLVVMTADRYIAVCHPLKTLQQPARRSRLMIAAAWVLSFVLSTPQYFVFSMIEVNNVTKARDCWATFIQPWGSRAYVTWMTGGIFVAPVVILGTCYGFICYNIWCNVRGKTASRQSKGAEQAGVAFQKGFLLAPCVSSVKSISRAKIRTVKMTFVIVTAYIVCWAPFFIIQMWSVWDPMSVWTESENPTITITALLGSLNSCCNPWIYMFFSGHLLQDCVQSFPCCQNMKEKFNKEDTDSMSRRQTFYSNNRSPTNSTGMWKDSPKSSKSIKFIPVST", "assay": "Radioligand displacement and saturation binding, membranes of HEK293 cells stably expressing hV1aR, [3H]-VP", "conditions": "read-out: Ki hV1aR", "method": "as §1, §2, §3, §4, §5, §6, §7, §8, §9, §10\n(§27) ice-cold water bath sonicator. The obtained solution was centrifuged for 20 min at 54,192 g and 4°C. The obtained […]\nSpecific binding was determined by […]\nas §12, §13"}, "[7]": {"system": "mouse embryonic hippocampal neurons", "assay": "Tracer uptake in primary mouse hippocampal neurons", "type": "cell-based", "method": "as §14, §15, §16, §17, §18, §19, §20, §21, §22, §23, §24, §25, §26\nantagonist OTA. […]"}, "[8]": {"molecular_target": "T6, hV1bR (Homo sapiens, UniProt P47901)", "T6 construct": "expressed in transfected cells; membrane preparation", "T6 sequence (P47901 1-424)": "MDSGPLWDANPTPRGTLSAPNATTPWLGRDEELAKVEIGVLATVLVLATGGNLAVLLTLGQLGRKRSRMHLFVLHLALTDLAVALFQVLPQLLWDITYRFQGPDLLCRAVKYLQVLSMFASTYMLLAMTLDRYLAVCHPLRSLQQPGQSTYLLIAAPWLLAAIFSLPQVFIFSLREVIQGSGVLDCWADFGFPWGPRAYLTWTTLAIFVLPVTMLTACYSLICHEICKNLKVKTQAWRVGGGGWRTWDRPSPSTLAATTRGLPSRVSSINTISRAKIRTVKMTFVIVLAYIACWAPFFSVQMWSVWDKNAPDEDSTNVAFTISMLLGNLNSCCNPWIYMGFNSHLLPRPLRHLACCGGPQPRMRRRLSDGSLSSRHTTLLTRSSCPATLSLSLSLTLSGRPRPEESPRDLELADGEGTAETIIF", "assay": "Radioligand displacement and saturation binding, membranes of HEK293 cells stably expressing hV1bR, [3H]-VP", "conditions": "read-out: Ki hV1bR", "method": "as §1, §2, §3, §4, §5, §6, §7, §8, §9, §10, §27\nSpecific binding was determined by […]\nas §12, §13"}, "[9]": {"molecular_target": "T7, mOTR (Mus musculus, UniProt P97926)", "T7 construct": "expressed in transfected cells; host or cells: wild-type HEK293, transient transfection (jetPRIME); membrane preparation", "T7 sequence (P97926 1-388)": "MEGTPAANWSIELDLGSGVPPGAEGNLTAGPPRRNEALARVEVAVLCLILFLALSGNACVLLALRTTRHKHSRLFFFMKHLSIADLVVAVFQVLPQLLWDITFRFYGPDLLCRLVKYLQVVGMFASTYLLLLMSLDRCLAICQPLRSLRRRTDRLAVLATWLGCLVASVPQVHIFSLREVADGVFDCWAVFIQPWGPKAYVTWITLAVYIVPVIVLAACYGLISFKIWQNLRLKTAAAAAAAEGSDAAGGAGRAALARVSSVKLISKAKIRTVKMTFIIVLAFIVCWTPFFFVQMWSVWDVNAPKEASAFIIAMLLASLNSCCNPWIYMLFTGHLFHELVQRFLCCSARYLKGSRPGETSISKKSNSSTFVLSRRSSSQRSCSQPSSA", "assay": "Radioligand displacement, membranes of HEK293 cells transiently expressing mOTR", "type": "binding, murine", "method": "as §1, §2, §3, §4, §5, §6, §7, §8, §9, §10\n(§28) ice-cold water bath sonicator. The obtained solution was centrifuged for 20 min at 54,192 g and 4°C. The obtained\n(§29) pellet was resuspended in TRIS buffer without protease inhibitors, homogenized with an ultrasonicator, aliquoted,\n(§30) and stored at -80°C until further use. A BCA assay was used to determine the protein concentration of the\n(§31) Radioligand displacement and saturation experiments. Assay solutions consisting of competing ligand,\n(§32) radioligand, and membrane preparation were incubated for 1 h at 37°C. Standard binding buffer solution (50 mM\n(§33) TRIS, 5 mM MgCl2, 0.1% BSA, pH 7.4) was used to prepare all dilutions; the final assay volume was 200 µL.\n(§34) concentrations were 8 μg/vial for hOTR, 5 μg/vial for hV1aR, and 3 μg/vial for hV1bR and hV2R, respectively , and\n(§35) 4 μg/vial for mOTR, 1.5 μg/vial for m V1aR, 3 μg/vial for mV 1bR, and 10 μg/vial for mV 2R. To assess non-specific\nSpecific binding was determined by\n(§36) subtraction of the non-specific binding from the total binding. In radioligand displacement experiments, semi -\n(§37) logarithmically spaced concentrations of respective test ligands were applied to determine K i values based on\n(§38) assessed Kd values of radiotracers and by fitting the data to a three -parameter logistic Hill equation and applying\n(§39) the Cheng and Prusoff approximation. 10 In case of human receptors from stable cell lines, Kd and Bmax values were\n(§40) In case of murine receptors from transient\n(§41) was performed using GraphPad Prism (version 9.5.1) . After incubation, membranes were filtered and washed on\n(§42) a Skatron Cell Harvester using polyethyleneimine -coated glass fiber filters (type B, soaked in 0.1% aqueous\n1 mM MgCl2, pH 7.4, 4°C). […]\nas §13"}, "[10]": {"molecular_target": "T8, hV2R (Homo sapiens, UniProt P30518)", "T8 construct": "expressed in transfected cells; membrane preparation", "T8 sequence (P30518 whole entry)": "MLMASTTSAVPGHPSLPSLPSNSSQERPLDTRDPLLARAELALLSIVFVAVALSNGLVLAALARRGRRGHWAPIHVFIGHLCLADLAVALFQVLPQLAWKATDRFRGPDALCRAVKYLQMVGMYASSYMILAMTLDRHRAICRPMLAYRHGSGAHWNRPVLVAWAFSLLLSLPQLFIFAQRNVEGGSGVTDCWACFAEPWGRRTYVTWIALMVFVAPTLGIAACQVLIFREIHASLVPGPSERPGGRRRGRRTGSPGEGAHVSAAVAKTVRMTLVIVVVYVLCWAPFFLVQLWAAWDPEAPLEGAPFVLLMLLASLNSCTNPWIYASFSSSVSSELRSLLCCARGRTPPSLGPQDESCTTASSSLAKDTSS", "assay": "Radioligand displacement and saturation binding, membranes of HEK293 cells stably expressing hV2R, [3H]-VP", "conditions": "read-out: Ki hV2R", "method": "as §1, §2, §3, §4, §5, §6, §7, §8, §9, §10, §27\nSpecific binding was determined by […]\nas §12, §13"}, "[11]": {"molecular_target": "T9, hOTR (Homo sapiens, UniProt P30559)", "T9 construct": "expressed in transfected cells", "T9 sequence (P30559 1-389)": "T2 sequence (P30559 1-389)", "assay": "Radioligand displacement and saturation binding, membranes of HEK293 cells stably expressing hOTR, [3H]-OT", "conditions": "for Ki: [3H]-OT, mean ± SD, duplicates, at least three independent experiments, read-out: Ki hOTR", "method": "as §1, §2, §3, §4, §5, §6, §7, §8, §9, §10, §28, §29, §30, §31, §32, §33, §34, §35\nSpecific binding was determined by\nas §36, §37, §38, §39, §40, §41, §42\n1 mM MgCl2, pH 7.4, 4°C). The soaked filter pieces were transferred into counter vials, and 2 mL of scintillation\ncocktail (LSC Universalcocktail) was added to each vial. After 1 h incubation at 25°C on a shaker, radioligand\nconcentration was determined using a Tri -Carb liquid scintillation analyzer.\nresponse curves were obtained from radioligand displacement experiments of membrane preparations of HEK293\nValues were normalized to the percentage\nof maximum binding (i.e., no competing ligand present). Specific binding was obtained from the subtraction of\nnon-specific binding from total binding. K i values were derived from one-site-fitted competition binding curves."}, "[12]": {"system": "human uterine smooth muscle cells (UtSMC)", "assay": "Stimulation of primary human uterine smooth muscle cells (UtSMC)", "type": "cell-based", "method": "as §14, §15, §16, §17, §18, §19, §20, §21, §22, §23, §24, §25, §26\nantagonist OTA. In parallel, neurons were exposed to 100 nM of the scrambled tracer SCR for 1 h. After\nstimulations, cells were washed with ice-cold PBS and fixed with 4% paraformaldehyde for 30 min on ice. Next,\nwashed again in PBS, and directly imaged on a Zeiss LSM880 confocal microscope."}, "[13]": {"molecular_target": "T2, hOTR-GFP in HEK293 cells", "assay": "Live-cell imaging (ZEISS Lattice SIM) of hOTR-GFP internalization", "conditions": "10 and 100 nM tracer", "method": "We first exposed hOTR‐GFP cells to 10 and 100 nM of tracer (11) during acquisition with a ZEISS Lattice SIM microscope (Movies S1 and S2). […] To further disentangle the dynamics of our tracer‐mediated OTR engagement and trafficking, we evaluated its applicability in single‐particle tracking (SPT) in living cells. We cultured HEK293 (parent cells) and HEK293 cells stably expressing hOTR‐GFP (HEK293‐hOTR‐GFP) and performed total internal reflection microscopy (TIRFM) SPT universal point accumulation imaging in nanoscale topography (uPAINT) following the addition of 1 nM of tracer (10). […] This concentration was selected to facilitate the detection and tracking of single molecules of the fluorescent agonist tracer following binding to hOTR at the plasma membrane by uPAINT. […] We first assessed the number of tracks (indicative of the number of single molecules detected/tracked). […] We quantified the mean squared displacement of each trajectory to calculate its apparent diffusion coefficient. The diffusion coefficient of each trajectory of the tracer bound to hOTR was plotted as a frequency distribution (Figure 7b2 ).\nLive cell imaging. For 3D live cell imaging, attached and serum -starved HEK293-hOTR-GFP cells in 96-well\nglass bottom plates were imaged on a ZEISS Lattice SIM Microscope using a 40x oil objective and SIM 2 post- […]"}}, "note": "Starred links: 1 amine or outer side, 2 acyl side, 3 side chain; linkers in the order of their positions; H or OH if unused. Positions of bridges follow the written chain, without caps; N, C: chain ends. Non-standard residues stand in square brackets, D forms with d. Residues, ends and D or L forms follow the SMILES beside them. Groups on a side chain read outwards from the residue. *: point of attachment. X1 = CCN1C(=CC=CC2=[N+](CCCCCC(=O)*)c3ccc(S(=O)(=O)O)cc3C2(C)C)C(C)(C)c2cc(S(=O)(=O)[O-])ccc21; d(εLys) = N[C@H](CCCCN[*:1])C(=O)[*:2]; X2 = O=C(CC1(S[*:2])CCCCC1)[*:1]; PEG5 = NCCOCCOCCOCCOCCOCCC(=O)O; Orn = NCCC[C@H](N)C(=O)O; Mpa = O=C(O)CCS", "data": [{"smiles": "CC[C@H](C)[C@@H]1NC(=O)[C@@H](Cc2ccc(O)cc2)NC(=O)CC2(CCCCC2)SSC[C@@H](C(=O)N2CCC[C@H]2C(=O)N[C@@H](CCCN)C(=O)O)NC(=O)[C@H](CC(N)=O)NC(=O)[C@H]([C@@H](C)O)NC1=O", "note": "[OTR antagonist (OTA), reference compound] ([dY]ITNCP[Orn]-OH; linker N-5 via X2)", "values": [{"measurement": "Ki", "setting": "[1]", "value": "3010 ± 346", "unit": "nM"}, {"measurement": "Effect of antagonist pretreatment on hOTR-GFP internalization and accumulation of tracers (3) and (7)", "setting": "[2]; 10 µM, 30 min before 1 h stimulation with 100 nM tracer", "value": "prevented hOTR‐GFP internalization and cytoplasmic accumulation"}, {"measurement": "Effect of antagonist pretreatment on tracer (11) uptake", "setting": "[2]; 10 µM, 30 min pretreatment", "value": "completely prevented tracer (11) uptake"}, {"measurement": "Effect of antagonist pretreatment on tracer (13) uptake and GFP internalization", "setting": "[2]; 10 µM, 30 min pretreatment, tracer (13) up to 100 nM", "value": "completely prevented"}, {"measurement": "Effect of OTA pretreatment on tracer (11) uptake in rat hippocampal neurons", "setting": "[3]", "value": "prevented compound (11) internalization"}, {"measurement": "Ki", "setting": "[4]", "value": "> 10000", "unit": "nM"}, {"measurement": "Ki", "setting": "[5]", "value": "> 10000", "unit": "nM"}, {"measurement": "Ki", "setting": "[6]", "value": "45.8 ± 11.9", "unit": "nM"}, {"measurement": "Effect of OTA pretreatment on tracer (11) uptake in mouse hippocampal neurons", "setting": "[7]; 10 µM, 30 min", "value": "completely inhibited the uptake"}, {"measurement": "Ki", "setting": "[8]", "value": "> 10000", "unit": "nM"}, {"measurement": "Selectivity ratio mV1aR/mOTR", "setting": "[9]; Ki ratio", "value": ">1500"}, {"measurement": "Selectivity ratio mV1bR/mOTR", "setting": "[9]; Ki ratio", "value": ">1500"}, {"measurement": "Selectivity ratio mV2R/mOTR", "setting": "[9]; Ki ratio", "value": 510}, {"measurement": "Ki", "setting": "[9]; murine receptor, transient expression, mean ± SD", "value": "5.9 ± 1.7", "unit": "nM"}, {"measurement": "Ki", "setting": "[10]", "value": "> 10000", "unit": "nM"}, {"measurement": "Selectivity ratio hV1aR/hOTR", "setting": "[11]; Ki ratio, VPR affinity divided by OTR affinity", "value": 1.02}, {"measurement": "Ki", "setting": "[11]", "value": "44.9 ± 8.8", "unit": "nM"}, {"measurement": "Effect of OTA pretreatment on tracer (11) in UtSMC", "setting": "[12]", "value": "prevented tracer uptake as well as cellular contractions and membrane blebbing"}]}, {"smiles": "CC[C@H](C)[C@@H]1NC(=O)[C@H](Cc2ccc(O)cc2)NC(=O)CCSSC[C@@H](C(=O)N2CCC[C@H]2C(=O)N[C@@H](CCCNC(=O)[C@@H](CC(=O)O)NC(=O)CCOCCOCCOCCOCCOCCNC(=O)[C@H](N)CCCCNC(=O)CCCCC[N+]2=C(C=CC=C3N(CC)c4ccc(S(=O)(=O)[O-])cc4C3(C)C)C(C)(C)c3cc(S(=O)(=O)O)ccc32)C(=O)NCC(N)=O)NC(=O)[C@H](CC(N)=O)NC(=O)[C@H](CCC(N)=O)NC1=O", "note": "[Compound 11] ([Mpa]YIQNCP[Orn]([dD-PEG5-d(εLys)-X1])G-NH2; disulfide 1-6)", "values": [{"measurement": "Ki", "setting": "[1]", "value": "> 10000", "unit": "nM"}, {"measurement": "Cy3s signal accumulation in hOTR-expressing cells", "setting": "[2]; post ICC, normalized to control", "value": "significant concentration‐dependent accumulation"}, {"measurement": "Tracer uptake in mouse hippocampal neurons", "setting": "[7]; 100 nM, 1 h, E16.5 neurons cultured 14 days", "value": "robust uptake in subpopulations of neurons"}, {"measurement": "Time to peak internalization", "setting": "[13]", "value": "5 to 10", "unit": "min"}, {"measurement": "Ki", "setting": "[11]", "value": 2, "unit": "nM"}, {"measurement": "Contraction of UtSMC", "setting": "[12]; 100 nM, live-cell imaging", "value": "induced rapid contractions within minutes"}, {"measurement": "Tracer uptake in UtSMC", "setting": "[12]; 60 min treatment", "value": "accumulation was observed in vesicle‐like structures within 60 min"}]}]}
